Data published in ChEMBL document CHEMBL3507680, “University of Dundee, Gates Library screen for HepG2 cell viability”.

Assay: Human HepG2 cell viability assay in 384 well format
Format: toxicity, cell-based
Set-up: dose 125 nL, time 70.5 hour; cytotoxicity at 70.5 h: concentration not given beside the values
Conditions: HepG2 cells, read-out: Inhibition

Going from `CCC(c1ccncc1)N(C)S(C)(=O)=O` (stereo not given) to `CC(c1cccnc1)N(C)S(C)(=O)=O` (stereo not given), the cytotoxicity at 70.5 h falls from -1.1% to -2.51%.

Compared with `O=C(Nc1cccnc1N1CCSCC1)c1ccc2c(c1)CCO2`, `O=C(NCC1(O)CCSCC1)c1nccc2ccccc12` is lower in cytotoxicity at 70.5 h: 53.2% for the first, 13.5% for the second.

First: CCn1nnnc1-c1cccc(NCc2nc(C)ccc2O)c1
Second: CCn1nnnc1-c1cccc(NC(=O)CCn2cc(C)cn2)c1
The cytotoxicity at 70.5 h of the first is higher: -6.25% for the first, -7.36% for the second.

First: c1cc2occc2c(N2CCCC(c3nncn3C3CC3)C2)n1 (stereo not given)
Second: Cc1nc(C)n(CC2CCCN2c2ccnc(-c3ccccc3)n2)n1 (stereo not given)
The cytotoxicity at 70.5 h of the first is higher: 17.6% for the first, -6.3% for the second.

Going from `COCCC(C)NS(=O)(=O)c1ccc(C)c(N(C)C)c1` (stereo not given) to `COCCS(=O)(=O)Nc1cc(Cl)ccn1`, the cytotoxicity at 70.5 h rises from -2.25% to 14.3%.

First: O=C(CCc1nnc(-c2ccccc2)o1)N1CCCC1c1ccc[nH]1 (stereo not given)
Second: Cc1nc(CN2CCCC2C(=O)OCc2ccccc2)oc1C (stereo not given)
The cytotoxicity at 70.5 h of the first is higher: -3.43% for the first, -10.3% for the second.

Compared with `COCCCN(C)C(=O)c1nnn(-c2ccccc2Cl)c1C`, `Cc1oc(CNC(=O)Cc2ccccc2Cl)cc1C(=O)O` is lower in cytotoxicity at 70.5 h: 1.5% for the first, -7.56% for the second.

First: O=C(CN(Cc1cccs1)C1CCS(=O)(=O)C1)NC1CCCCC1 (stereo not given)
Second: O=C(CN(Cc1cccs1)C1CCS(=O)(=O)C1)NCCc1cccs1 (stereo not given)
The cytotoxicity at 70.5 h of the first is higher: 26.4% for the first, -2.26% for the second.

Going from `CC(C)(CNC(=O)C(C)(C)Oc1ccc2c(c1)CCCC2=O)C(N)=O` to `COc1ccc(Cn2nc(C(N)=O)ccc2=O)c(Cl)c1`, the cytotoxicity at 70.5 h falls from 0.471% to -3.77%.

Going from `COc1ccccc1NC(=O)c1[nH]nc(C(C)C)c1Br` to `COCC(=O)NC(C)c1sc(-c2ccccc2F)nc1C` (stereo not given), the cytotoxicity at 70.5 h rises from -3.43% to -2.79%.

Compared with `CC(=O)Nc1nc(COc2nc(C)no2)cs1`, `COc1ccc2nc(C3CC3)cc(C(=O)NCc3noc(C)n3)c2c1` is lower in cytotoxicity at 70.5 h: 24.6% for the first, -1.37% for the second.

Going from `CSc1ccc(C(=O)N(c2ccc(F)cn2)C2CCOCC2)o1` to `Cc1cncc(C(=O)N(c2ccc(F)cn2)C2CCOCC2)c1`, the cytotoxicity at 70.5 h falls from 30.2% to 5.37%.

Compared with `O=S(=O)(CCc1ccccc1)Nc1cc(Cl)ccn1`, `Cc1cccc(C(=O)NCCS(=O)(=O)Cc2ccccc2)c1` is lower in cytotoxicity at 70.5 h: 0.152% for the first, -8.95% for the second.

Going from `COc1ccc2nc(C3CC3)cc(C(=O)NCc3ncnn3C)c2c1` to `CCCN1CCC(N(C)C(=O)c2cc(C)nc3cc(F)ccc23)CC1`, the cytotoxicity at 70.5 h falls from 0.319% to -11.9%.

Compared with `CC(NC(=O)N1CCC2(C1)OCCO2)c1cccc(Cl)c1` (stereo not given), `CC1(C)CN(C(CNS(C)(=O)=O)c2ccc(Cl)cc2)CCO1` (stereo not given) is lower in cytotoxicity at 70.5 h: -4.94% for the first, -5.58% for the second.

Going from `O=S1(=O)CCCN(Cc2ccccc2OCC(F)(F)F)CC1` to `CC1CS(=O)(=O)CCN1Cc1ccccc1N(C)C` (stereo not given), the cytotoxicity at 70.5 h rises from -8.02% to -0.403%.

First: Cc1ccc(O)c(C(=O)NCCS(=O)(=O)Cc2ccccc2)c1
Second: Cc1ccc(C(=O)NCCS(=O)(=O)Cc2ccccc2)c(C)c1
The cytotoxicity at 70.5 h of the first is lower: -5.32% for the first, 1.96% for the second.

Going from `CCCn1c(NC(=O)CNC(=O)OCC)nc2ccccc21` to `CNC(=O)c1c(C)cccc1NCC(=O)Nc1cc(C)nn1C`, the cytotoxicity at 70.5 h rises from -8.2% to 8.71%.

Going from `COc1ccccc1C1(CNc2cn[nH]c(=O)c2Cl)CCOCC1` to `CSC1(CNC(=O)c2ccn(-c3ccccc3F)n2)CCOCC1`, the cytotoxicity at 70.5 h rises from -13.8% to -8.53%.

Compared with `O=C(COC1CCCCC1)Nc1ccn(Cc2cccnc2)n1`, `O=C(NC1CCCCC1)c1c(F)cccc1F` is higher in cytotoxicity at 70.5 h: -7.64% for the first, 4.08% for the second.

Going from `CCc1nc2n(n1)CC(Nc1nc(C)cc(N(C)C)n1)CC2` (stereo not given) to `Cc1cc(N(C)C)nc(N2CCn3c(nnc3C3CC3)C2)n1`, the cytotoxicity at 70.5 h rises from -6.31% to 5.46%.

Going from `NC(=O)c1ccc(=O)n(Cc2cc(Br)ccc2Cl)n1` to `COc1ccc(Br)cc1Cn1nc(C(N)=O)ccc1=O`, the cytotoxicity at 70.5 h falls from -5.48% to -6.15%.

First: CCn1nc2c(cc1=O)CN(CC1CCCCO1)CC2 (stereo not given)
Second: CCCn1nc2c(cc1=O)CN(CC1CCCCO1)CC2 (stereo not given)
The cytotoxicity at 70.5 h of the first is higher: 11.3% for the first, -1.08% for the second.

Compared with `CN(CCN(C)S(=O)(=O)CC1CCOCC1)c1ccccc1`, `CCN(CCCc1ccccc1C)S(C)(=O)=O` is lower in cytotoxicity at 70.5 h: -3.42% for the first, -3.45% for the second.

Going from `O=c1[nH]c(=O)n(CC(O)c2ccc(F)cc2F)cc1Cl` (stereo not given) to `CCC(=O)Nc1ccc(F)cc1OC`, the cytotoxicity at 70.5 h rises from 0.374% to 14.6%.

Going from `CCOc1cccc(NCc2cnc(N3CCN(C)CC3)nc2)n1` to `CC(=O)N1CCN(c2ccccc2CNc2cncc(C)c2)CC1`, the cytotoxicity at 70.5 h rises from 3.56% to 4.13%.

Compared with `CC(=O)N1CCN(c2ccccc2CNc2ccc3[nH]ncc3c2)CC1`, `O=C(c1ccc(NCc2cccc(F)c2)cc1)N1CCCC1` is higher in cytotoxicity at 70.5 h: 0.892% for the first, 1.69% for the second.

First: CCn1nnnc1-c1cccc(NC(=O)CCOC(C)C)c1
Second: Cc1ccc(C(C)(O)CNC(=O)CCn2ccnc2C(C)C)o1 (stereo not given)
The cytotoxicity at 70.5 h of the first is lower: -7.16% for the first, -2.97% for the second.

Compared with `CCn1cc(S(=O)(=O)Nc2ccc3[nH]c(C4CCC4)nc3c2)cn1`, `CCOc1ccc(Cl)c(C(=O)N2CCCC(c3ccn[nH]3)C2)n1` (stereo not given) is lower in cytotoxicity at 70.5 h: 24.1% for the first, -2.59% for the second.

Compared with `CC(C)NC(=O)N1CCCCCC1C1CCN(c2ncccn2)CC1` (stereo not given), `CC(C)NC(=O)N1CCC[C@H]1C(=O)NCCCc1cnn(C)c1` is lower in cytotoxicity at 70.5 h: 19.7% for the first, -4.04% for the second.

Going from `Cc1cc(C(=O)N(C)C2CCS(=O)(=O)C2)c2ccc(F)cc2n1` (stereo not given) to `Cc1cc(NC(=O)CNc2cccc(OC(F)F)c2C)n(C)n1`, the cytotoxicity at 70.5 h falls from 10.8% to -6.65%.

Going from `CN(Cc1cc(Cl)c2c(c1)OCO2)Cc1cscn1` to `Cc1ccc(C(=O)NS(=O)(=O)c2ccc3c(c2)OCCCO3)o1`, the cytotoxicity at 70.5 h rises from 3.03% to 11.7%.

Compared with `CS(=O)(=O)CCCN1CCSCC1c1ccc(Cl)cc1` (stereo not given), `CC(CS(C)(=O)=O)NC(=O)N1CC2(CCCC2)c2ccccc21` (stereo not given) is higher in cytotoxicity at 70.5 h: -9.37% for the first, -2.3% for the second.

First: Cc1noc(C)c1NC(=O)N1CCC(NC(=O)OC(C)(C)C)CC1
Second: Cc1cc(C(C)(O)CNC(=O)CCn2ccnc2C(C)C)c(C)o1 (stereo not given)
The cytotoxicity at 70.5 h of the first is lower: -5.75% for the first, 9.42% for the second.

Compared with `CCOc1ncccc1C(=O)NC1CC(=O)N(CC(F)(F)F)C1` (stereo not given), `CC(C)Oc1ccccc1C(=O)NC1CC(=O)N(CC(F)(F)F)C1` (stereo not given) is lower in cytotoxicity at 70.5 h: -6.92% for the first, -22.6% for the second.

Compared with `COC(=O)CCN(CC1CCCO1)C(=O)Cc1ccc(OC)c(OC)c1` (stereo not given), `CSc1cc(CNC(=O)CCOc2ccccc2C)ccn1` is lower in cytotoxicity at 70.5 h: -5.89% for the first, -7.07% for the second.

Compared with `C/C=C(/C)C(=O)NS(=O)(=O)c1ccc(Cl)cn1`, `C/C=C(/C)C(=O)NS(=O)(=O)c1ccc(C(F)(F)F)cn1` is lower in cytotoxicity at 70.5 h: -0.512% for the first, -18.7% for the second.

Going from `OC1(CN2CCCC(Cn3cncn3)C2)CCCCC1` (stereo not given) to `c1ncn(CC2CCCN(CC3CCCCC3)C2)n1` (stereo not given), the cytotoxicity at 70.5 h falls from 6.45% to -7.32%.

Going from `CCN1CC(COC(=O)c2ccccc2Cl)CC1=O` (stereo not given) to `O=C(Nc1ccccc1)C1CCCN(C(=O)Cn2cncn2)C1` (stereo not given), the cytotoxicity at 70.5 h falls from 7.47% to -0.859%.

First: CC(C)n1cnnc1CNC(=O)c1cnn(-c2ccccc2)c1
Second: O=C(c1cccc(NCc2cccc(F)c2)c1)N1CCC(O)CC1
The cytotoxicity at 70.5 h of the first is lower: 10% for the first, 10.8% for the second.

First: O=C(c1ccc(NCc2cccc(F)c2)cc1)N1CCC(CO)CC1
Second: NC(=O)c1ccc(NC(=O)c2ccncc2F)cn1
The cytotoxicity at 70.5 h of the first is lower: 2.87% for the first, 10.3% for the second.

Compared with `Cc1nc(C)c(C(=O)Nc2ccc(-c3nnc(N(C)C)o3)cc2)o1`, `O=C(NCC1(c2cccs2)CCCCC1)N1CCOC(CO)C1` (stereo not given) is higher in cytotoxicity at 70.5 h: -4.93% for the first, -1.73% for the second.

For `CC(=O)N1CCCN(C(=O)NCC2(c3cccs3)CCCC2)CC1`, the cytotoxicity at 70.5 h was -4.55%.
